Laboratory results reported in US20240180948A1, “4'-HALOGEN CONTAINING NUCLEOTIDE AND NUCLEOSIDE THERAPEUTIC COMPOSITIONS AND USES RELATED THERETO” (priority 2018, published 2024).

Experiments:
Plasma stability, human = details: both
Plasma stability, rat = details: male, Sprague-Dawley
Plasma stability, mouse = details: male, CD-1, mouse
[1] = Liver microsome stability, mouse; details: male, CD-1, mouse, liver microsomes, pH 7.4
[2] = Liver microsome stability, rat; details: male, Sprague-Dawley, liver microsomes, pH 7.4
[3] = Liver microsome stability, human; details: both, liver microsomes, pH 7.4
[4] = Mouse plasma PK, single dose PO or IP; details: female, ICR (CD-1)

SMILES | half-life at 1 μM (Plasma stability, human) | half-life at 1 μM (Plasma stability, rat) | half-life at 1 μM (Plasma stability, mouse) | half-life at 1 μM [1] | half-life at 1 μM [2] | half-life at 1 μM [3] | AUC(0-inf) ([4]; ip, 10 mg/kg) | half-life ([4]; ip, 10 mg/kg) | AUC(0-inf) ([4]; po, 50 mg/kg) | bioavailability ([4]; po, 50 mg/kg) | half-life ([4]; po, 50 mg/kg) | AUC(0-inf) ([4]; po, 150 mg/kg) | bioavailability ([4]; po, 150 mg/kg) | half-life ([4]; po, 150 mg/kg) | AUC(0-inf) ([4]; po, 500 mg/kg) | bioavailability ([4]; po, 500 mg/kg) | half-life ([4]; po, 500 mg/kg)
CC(C)[C@H](N)C(=O)OC[C@@]1(F)O[C@@H](n2ccc(=O)[nH]c2=O)[C@H](O)[C@@H]1O.Cl [EIDD-2971, [(1S)-1-[[(2S,3S,4R,5R)-5-(2,4-dioxopyrimidin-1-yl)-2-fluoro-3,4-dihydroxy-tetrahydrofuran-2-yl]methoxycarbonyl]-2-methyl-propyl]ammonium chloride] | 81 min | 50 min | 59 min | 11 min | 33 min | 38 min |  |  |  |  |  |  |  |  |  |  | 
O=c1ccn([C@@H]2O[C@](F)(CO)[C@@H](O)[C@H]2O)c(=O)[nH]1 [EIDD-02749, 1-[(2R,3R,4S,5S)-5-fluoro-3,4-dihydroxy-5-(hydroxymethyl)tetrahydrofuran-2-yl]pyrimidine-2,4-dione] | 26 min | 22 min | 37 min | 27 min | 25 min | 22 min | 19.6 µM·h | 378 min | 232 µM·h | 236% | 498 min | 392 µM·h | 133% | 510 min | 755 µM·h | 77% | 774 min
CC(C)C(=O)OC[C@@]1(F)O[C@@H](n2ccc(=O)[nH]c2=O)[C@H](OC(=O)C(C)C)[C@@H]1OC(=O)C(C)C [EIDD-2954, [(2S,3S,4R,5R)-5-(2,4-dioxopyrimidin-1-yl)-2-fluoro-3,4-bis(2-methylpropanoyloxy)tetrahydrofuran-2-yl]methyl 2-methylpropanoate] | 2 min | 1 min | 1 min | < 1 min | < 1 min | < 1 min |  |  |  |  |  |  |  |  |  |  | 
CC(C)C(=O)OC[C@@]1(F)OC(n2ccc(=O)[nH]c2=O)C(O)[C@@H]1O (stereo partly drawn) [EIDD-2947, [(2S,3S)-5-(2,4-dioxopyrimidin-1-yl)-2-fluoro-3,4-dihydroxy-tetrahydrofuran-2-yl]methyl 2-methylpropanoate] | 2 min | 9 min | 1 min | 1 min | 10 min |  |  |  |  |  |  |  |  |  |  |  | 
